≈ marks a conversion by molar mass, not a printed value. Non-standard residues stand in square brackets, D forms with d. Residues, ends and D or L forms follow the SMILES beside them. Ac6c = NC1(C(=O)O)CCCCC1; Ac5c = NC1(C(=O)O)CCCC1
Legend:
Klebsiella aerogenes = assay: Antibacterial activity against carbapenem-resistant Enterobacter aerogenes NCDC819-56 ATCC 13048 by two fold serial dilution method; type: functional
Acinetobacter baumannii = assay: Antibacterial activity against Acinetobacter baumannii B5W71 ATCC 15149 by two fold serial dilution method; type: functional
[1] = Antibacterial activity against Salmonella enterica LT2 Typhimurium ATCC 15277 by two fold serial dilution method; type: functional
Pseudomonas aeruginosa = assay: Antibacterial activity against Pseudomonas aeruginosa Boston 41501 ATCC 27853 by two fold serial dilution method; type: functional
[2] = Antibacterial activity against carbapenem-resistant Klebsiella pneumoniae K6 ATCC 700603 by two fold serial dilution method; type: functional, Klebsiella pneumoniae 700603
Enterococcus faecalis = assay: Antibacterial activity against Enterococcus faecalis Portland ATCC 29212 by two fold serial dilution method; type: functional; details: ATCC 29212 Portland
Staphylococcus aureus [3] = assay: Antibacterial activity against methicillin-resistant Staphylococcus aureus USA 300 NRS 384 by two fold serial dilution method; type: functional
[4] = Antibacterial activity against Clostridium difficile VIP 10463 ATCC 43255 by two fold serial dilution method; type: functional, Clostridium difficile ATCC 43255; details: Clostridioides difficile
Staphylococcus aureus [5] = assay: Antibacterial activity against Staphylococcus aureus Seattle 1945 ATCC 25923 by two fold serial dilution method; type: functional
Streptococcus pneumoniae = assay: Antibacterial activity against Streptococcus pneumoniae 262 ATCC 49619 by two fold serial dilution method; type: functional
Neisseria gonorrhoeae = assay: Antibacterial activity against Neisseria gonorrhoeae F-18 ATCC 49226 by two fold serial dilution method; type: functional
[6] = Antibacterial activity against Bacillus anthracis Ames NR-3838 by two fold serial dilution method; type: functional, Bacillus anthracis str. Ames
[7] = Antibacterial activity against Francisella tularensis SCHU S4 NR-643 by two fold serial dilution method; type: functional
[8] = Antibacterial activity against Yersinia pestis CO92 NR641 by two fold serial dilution method; type: functional
[9] = test system: Burkholderia pseudomallei; assay: Antibacterial activity against Burkholderia pseudomallei AHS 1 NCTC 8016 by two fold serial dilution method; type: functional
[10] = test system: Mycobacterium tuberculosis; assay: Antibacterial activity against Mycobacterium tuberculosis H37Ra ATCC 2517 by two fold serial dilution method; type: functional
CFPAC-1 = assay: Antiproliferative activity against human CFPAC-1 cells after 72 hrs by Celltiter-Glo luminescent cell viability assay; type: functional, cell-based; details: CFPAC-1, 72 h
MCF7 = assay: Antiproliferative activity against human MCF7 cells after 72 hrs by Celltiter-Glo luminescent cell viability assay; type: functional, cell-based; details: MCF7, 72 h
[11] = Antiproliferative activity against human IGROV1 cells after 72 hrs by Celltiter-Glo luminescent cell viability assay; type: functional, cell-based; details: IGROV-1, 72 h
[12] = Antiproliferative activity against human COLO205 cells after 72 hrs by Celltiter-Glo luminescent cell viability assay; type: functional, cell-based; details: COLO 205, 72 h
[13] = Antiproliferative activity against human DLD1 cells after 72 hrs by Celltiter-Glo luminescent cell viability assay; type: functional, cell-based; details: DLD-1, 72 h
[14] = Antiproliferative activity against human UACC62 cells after 72 hrs by Celltiter-Glo luminescent cell viability assay; type: functional, cell-based; details: UACC-62, 72 h
[15] = Antiproliferative activity against human MIAPaCa2 cells after 72 hrs by Celltiter-Glo luminescent cell viability assay; type: functional, cell-based; details: MIA PaCa-2, 72 h
A498 = assay: Antiproliferative activity against human A498 cells after 72 hrs by Celltiter-Glo luminescent cell viability assay; type: functional, cell-based; details: A498, 72 h
[16] = Antiproliferative activity against human PC3 cells after 72 hrs by Celltiter-Glo luminescent cell viability assay; type: functional, cell-based; details: PC-3, 72 h
A549 = assay: Antiproliferative activity against human A549 cells after 72 hrs by Celltiter-Glo luminescent cell viability assay; type: functional, cell-based; details: A549, 72 h
NCI-H69 = assay: Antiproliferative activity against human NCI-H69 cells after 72 hrs by Celltiter-Glo luminescent cell viability assay; type: functional, cell-based; details: NCI-H69, 72 h
RL = assay: Antiproliferative activity against human RL cells after 72 hrs by Celltiter-Glo luminescent cell viability assay; type: functional, cell-based

CC(=O)NCC(=O)N[C@@H](Cc1ccccc1)C(=O)NC1(C(=O)NCC(=O)NC2(C(=O)N[C@@H](CCCNC(=N)N)C(=O)NC3(C(=O)NCC(=O)NC4(C(=O)N[C@@H](Cc5ccccc5)C(=O)NC5(C(=O)NCC(=O)NC6(C(=O)NCC(=O)N[C@@H](CCCNC(=N)N)C(=O)NC7(C(=O)N[C@@H](CCCNC(=N)N)C(=O)N[C@@H](CCCNC(=N)N)C(=O)N[C@@H](CCCNC(=N)N)C(=O)N[C@@H](CCCNC(=N)N)C(N)=O)CCCC7)CCCC6)CCCC5)CCCC4)CCCC3)CCCC2)CCCC1 (Ac-GF[Ac5c]G[Ac5c]R[Ac5c]G[Ac5c]F[Ac5c]G[Ac5c]GR[Ac5c]RRRR-NH2)
MIC (Klebsiella aerogenes): > 42.4 µM | MIC (Acinetobacter baumannii): 2.65 µM (≈ 6.24 µg/mL) | MIC [1]: 42.4 µM (≈ 99.9 µg/mL) | MIC (Pseudomonas aeruginosa): 2.65 µM (≈ 6.24 µg/mL) | MIC [2]: 5.31 µM (≈ 12.5 µg/mL) | MIC (Enterococcus faecalis): 5.31 µM (≈ 12.5 µg/mL) | MIC (Staphylococcus aureus [3]): 5.31 µM (≈ 12.5 µg/mL) | MIC [4]: 5.31 µM (≈ 12.5 µg/mL) | MIC (Staphylococcus aureus [5]): 2.65 µM (≈ 6.24 µg/mL) | MIC (Streptococcus pneumoniae): > 43 µM | MIC (Neisseria gonorrhoeae): 5.31 µM (≈ 12.5 µg/mL) | MIC [6]: 2.65 µM (≈ 6.24 µg/mL) | MIC [7]: 21.2 µM (≈ 49.9 µg/mL) | MIC [8]: > 43 µM | MIC [9]: > 43 µM | MIC [10]: 21.2 µM (≈ 49.9 µg/mL) | IC50 (CFPAC-1): > 7.5 µM | IC50 (MCF7): > 7.5 µM | IC50 [11]: > 7.5 µM | IC50 [12]: > 7.5 µM | IC50 [13]: > 7.5 µM | IC50 [14]: > 7.5 µM | IC50 [15]: > 7.5 µM | IC50 (A498): > 7.5 µM | IC50 [16]: > 7.5 µM | IC50 (A549): > 7.5 µM | IC50 (NCI-H69): 7.1 µM | IC50 (RL): 3.7 µM

C[C@H]1c2cccc(O)c2C(=O)C2=C(O)[C@]3(O)C(=O)C(C(N)=O)=C(O)[C@@H](N(C)C)[C@@H]3[C@@H](O)[C@@H]21 [DOXYCYCLINE]
MIC [6]: 0.87 µM (≈ 0.387 µg/mL) | MIC [7]: 1.1 µM (≈ 0.489 µg/mL) | MIC [8]: 1.1 µM (≈ 0.489 µg/mL)

CC(=O)NCC(=O)N[C@@H](Cc1ccccc1)C(=O)NC1(C(=O)NCC(=O)NC2(C(=O)N[C@@H](CCCCN)C(=O)N[C@@H](CCCCN)C(=O)NC3(C(=O)NCC(=O)NC4(C(=O)N[C@@H](Cc5ccccc5)C(=O)NC5(C(=O)NCC(=O)NC6(C(=O)NCC(=O)N[C@@H](CCCCN)C(=O)N[C@@H](CCCCN)C(=O)NC7(C(=O)N[C@@H](CCCCN)C(=O)N[C@@H](CCCCN)C(=O)N[C@@H](CCCCN)C(=O)N[C@@H](CCCCN)C(N)=O)CCCCC7)CCCCC6)CCCCC5)CCCCC4)CCCCC3)CCCCC2)CCCCC1 (Ac-GF[Ac6c]G[Ac6c]KK[Ac6c]G[Ac6c]F[Ac6c]G[Ac6c]GKK[Ac6c]KKKK-NH2)
MIC (Klebsiella aerogenes): > 39 µM | MIC (Acinetobacter baumannii): 2.46 µM (≈ 6.25 µg/mL) | MIC [1]: 2.46 µM (≈ 6.25 µg/mL) | MIC (Pseudomonas aeruginosa): 2.46 µM (≈ 6.25 µg/mL) | MIC [2]: 19.7 µM (≈ 50 µg/mL) | MIC (Enterococcus faecalis): 19.7 µM (≈ 50 µg/mL) | MIC (Staphylococcus aureus [3]): 39.4 µM (≈ 100 µg/mL) | MIC [4]: 2.46 µM (≈ 6.25 µg/mL) | MIC (Staphylococcus aureus [5]): 19.7 µM (≈ 50 µg/mL) | MIC (Streptococcus pneumoniae): 39.4 µM (≈ 100 µg/mL) | MIC (Neisseria gonorrhoeae): 0.61 µM (≈ 1.55 µg/mL) | MIC [6]: 2.46 µM (≈ 6.25 µg/mL) | MIC [7]: 19.7 µM (≈ 50 µg/mL) | MIC [8]: > 39 µM | MIC [9]: > 39 µM | MIC [10]: 4.92 µM (≈ 12.5 µg/mL) | IC50 (CFPAC-1): > 7.5 µM | IC50 (MCF7): 6.2 µM | IC50 [11]: > 7.5 µM | IC50 [12]: 5.4 µM | IC50 [13]: > 7.5 µM | IC50 [14]: 2.6 µM | IC50 [15]: 7.3 µM | IC50 (A498): 3 µM | IC50 [16]: > 7.5 µM | IC50 (A549): 7.2 µM | IC50 (NCI-H69): 1.9 µM | IC50 (RL): 2 µM

CN(C)[C@@H]1C(O)=C(C(N)=O)C(=O)[C@@]2(O)C(O)=C3C(=O)c4c(O)cccc4[C@@](C)(O)[C@H]3C[C@@H]12 [TETRACYCLINE]
MIC (Neisseria gonorrhoeae): 2.25 µM (≈ 1 µg/mL) | MIC [9]: 4.5 µM (≈ 2 µg/mL)

— ChEMBL document CHEMBL3822432, “Antibacterial and anticancer activity of a series of novel peptides incorporating cyclic tetra-substituted C(α) amino acids” (Bioorg Med Chem, 2016)
